Assay in all cases: microbe, parasite or virus in culture
What all share (assay type): cell-based, HIV-1

Experiment [1] deals with NLRepRlucP373S recombinant wild type (WT) virus. Particulars: Human immunodeficiency virus 1, MT2, read-out: WT EC50. As to the method:
(§1) Cells. MT-2 cells and 293T cells were obtained from the NIH AIDS Research and Reference Reagent Program. Cell lines were sub-cultured twice a week in either RPMI 1640 (MT-2) or DMEM (293T, HeLa) media supplemented with 10% heat inactivated fetal bovine serum (FBS), 100 units/mL of penicillin G and 100 μg/mL of streptomycin. The DMEM medium was additionally supplemented with 10 mM HEPES buffer, pH 7.55, 2 mM L-glutamine and 0.25 μg/mL of amphotericin B.
(§2) Viruses. NLRepRluc virus contains the Renilla luciferase marker in place of the viral nef gene. The proviral plasmid pNLRepRluc was constructed at Bristol-Myers Squibb, starting from a proviral NL4-3 clone (B subtype) that was obtained from the NIH AIDS Research and Reference Reagent Program. The parental recombinant wild type (WT) virus (NLRepRlucP373S) was derived from NLRepRluc and contains the additional substitution of P373 for serine in Gag (within the SP1 spacer), the most common 373 variation in subtype B. Other recombinant viruses (A364V, V370A/ΔT371 and the “T3325 triple” (T332S/V362I+HIV-1 protease R41G)) were generated by site-directed mutagenesis of plasmid pNLRepRlucP373S to introduce those amino acid substitutions in Gag and protease. Recombinant virus DNA was then used to generate virus stocks by transfection of 293T cells (Lipofectamine PLUS kit, Invitrogen). Titers of virus stocks were determined using a luciferase assay (Dual-Luciferase® Reporter Assay System, Promega, Milwaukee, Wis., USA) endpoint.
(§3) Multiple cycle drug susceptibility assay. Pellets of MT-2 cells were infected with NLRepRlucP373S Gag site-directed viruses, where initial inocula of the reporter strains were normalized using equivalent endpoint luciferase activity signals. Such cell-virus mixtures were resuspended in medium, incubated for 1-hour at 37° C./CO2, and added to compound containing 96-well plates at a final cell density of 10,000 cells per well. The test compounds were 3-fold serially diluted in 100% DMSO, and assayed at a final DMSO concentration of 1%. After 4-5 day incubation at 37° C./CO2, virus yields were determined by Renilla luciferase activity (Dual-Luciferase® Reporter Assay System, Promega). The endpoint luminescence was detected on a Wallac Trilux (PerkinElmer).
The 50% inhibitory concentrations (EC50S) were calculated by using the exponential form of the median effect equation where Percent Inhibition=1/[1+(EC50/drug conc.^m], where m is a parameter that reflects the slope of the concentration-response curve. Background was taken as the residual signal observed upon inhibition at the highest concentration of a control protease inhibitor, NFV (3 μM).
The 90% inhibitory concentrations (EC90S) were calculated by using the exponential form of the median effect equation where ECF=[(F/(100−F)]^1/H·EC50, where H is a parameter that reflects the slope of the concentration-response curve. Background was taken as the residual signal observed upon inhibition at the highest concentration of a control protease inhibitor, NFV (3 μM).

Experiment [2] relates to A364V site directed mutant virus. Particulars: Human immunodeficiency virus 1, MT2, read-out: A364V EC50. As to the method: as §1, §2, §3
(§4) HIV-1 NL4-3 expressing Renilla luciferase gene was converted to the gag V370A/ΔT371 virus by site directed mutagenesis. A364V is a site directed mutant.
(§5) All three recombinant viruses were used as described above in the HIV cell culture assay for the NL4-3 virus.

In another experiment the test system is gag V370A/ΔT371 virus. The settings on record: Human immunodeficiency virus 1, MT2, read-out: V370A/ΔT371 EC50. As to the method:
as §1, §2, §3, §4, §5

The subject of experiment [3] is T332S/V362I/Pr R41G virus. Particulars: Human immunodeficiency virus 1, MT2, read-out: T332S/V362I/pr41G EC50. The method, then:
as §1, §2, §3
T332sN362I/Pr R41G (N14.3, B Clade) virus′ was obtained as follows: Selection for resistance of HIV-1 strain […] virus with the HIV maturation inhibitor (MI) compound
At passage 8 virus was harvested and sequenced.
as §5

As to `C=C(C)[C@@H]1CC[C@]2(NCCN3CCS(=O)(=O)CC3)CC[C@]3(C)[C@H](CC[C@@H]4[C@@]5(C)CC=C(C6=CCC(COc7cccc(C(N)=O)n7)(C(=O)O)CC6)C(C)(C)[C@@H]5CC[C@]43C)[C@@H]12` (stereo partly drawn) [Example 40, 1-(((6-carbamoylpyridin-2-yl)oxy)methyl)-4-((1R,3aS,5aR,5bR,7aR,11aS,11bR,13aR,13bR)-3a-((2-(1,1-dioxidothiomorpholino)ethyl)amino)-5a,5b,8,8,11a-pentamethyl-1-(prop-1-en-2-yl)-2,3,3a,4,5,5a,5b,6,7,7a,8,11,11a,11b,12,13,13a,13b-octadecahydro-1H-cyclopenta[a]chrysen-9-yl)cyclohex-3-ene-1-carboxylic acid], the EC50 in experiment [1] was found to be 4 nM; in experiment [2], 271 nM; in the experiment with gag V370A/ΔT371 virus, 233 nM; in experiment [3], 233 nM.
On to `C=C(C)[C@@H]1CC[C@]2(NCCN3CCS(=O)(=O)CC3)CC[C@]3(C)[C@H](CC[C@@H]4[C@@]5(C)CC=C(C6=CCC(COc7nsnc7C)(C(=O)O)CC6)C(C)(C)[C@@H]5CC[C@]43C)[C@@H]12` (stereo partly drawn) [Example 5, 4-((1R,3aS,5aR,5bR,7aR,11aS,11bR,13aR,13bR)-3a-((2-(1,1-dioxidothiomorpholino)ethyl)amino)-5a,5b,8,8,11a-pentamethyl-1-(prop-1-en-2-yl)-2,3,3a,4,5,5a,5b,6,7,7a,8,11,11a,11b,12,13,13a,13b-octadecahydro-1H-cyclopenta[a]chrysen-9-yl)-1-(((4-methyl-1,2,5-thiadiazol-3-yl)oxy)methyl)cyclohex-3-ene-1-carboxylic acid], for which the EC50 came out at 3 nM in experiment [1], 15 nM in experiment [2], 15 nM in the experiment on gag V370A/ΔT371 virus and 15 nM in experiment [3].
On to `C=C(C)[C@@H]1CC[C@]2(NCCN3CCS(=O)(=O)CC3)CC[C@]3(C)[C@H](CC[C@@H]4[C@@]5(C)CC=C(C6=CCC(CCOc7ncccc7C)(C(=O)O)CC6)C(C)(C)[C@@H]5CC[C@]43C)[C@@H]12` (stereo partly drawn) [Example A28, 4-((1R,3aS,5aR,5bR,7aR,11aS,11bR,13aR,13bR)-3a-((2-(1,1-dioxidothiomorpholino)ethyl)amino)-5a,5b,8,8,11a-pentamethyl-1-(prop-1-en-2-yl)-2,3,3a,4,5,5a,5b,6,7,7a,8,11,11a,11b,12,13,13a,13b-octadecahydro-1H-cyclopenta[a]chrysen-9-yl)-1-(2-((3-methylpyridin-2-yl)oxy)ethyl)cyclohex-3-ene-1-carboxylic acid], for which the EC50 is less than 50 nM in experiment [1], greater than 50 nM in experiment [2], 68 nM in the experiment on gag V370A/ΔT371 virus and 68 nM in experiment [3].
On to `C=C(C)[C@@H]1CC[C@]2(NC[C@@H](O)CO)CC[C@]3(C)[C@H](CC[C@@H]4[C@@]5(C)CC=C(C6=CC[C@](COc7ncccc7C#N)(C(=O)O)CC6)C(C)(C)[C@@H]5CC[C@]43C)[C@@H]12` [Example A7, (R)-1-(((3-cyanopyridin-2-yl)oxy)methyl)-4-((1R,3aS,5aR,5bR,7aR,11aS,11bR,13aR,13bR)-3a-(((R)-2,3-dihydroxypropyl)amino)-5a,5b,8,8,11a-pentamethyl-1-(prop-1-en-2-yl)-2,3,3a,4,5,5a,5b,6,7,7a,8,11,11a,11b,12,13,13a,13b-octadecahydro-1H-cyclopenta[a]chrysen-9-yl)cyclohex-3-enecarboxylic acid], for which the EC50 in experiment [1] is 3 nM; in experiment [2], 477 nM; with gag V370A/ΔT371 virus it was 5 nM; in experiment [3] it was 5 nM.
`C=C(C)[C@@H]1CC[C@]2(NCCN3CCS(=O)(=O)CC3)CC[C@]3(C)[C@H](CC[C@@H]4[C@@]5(C)CC=C(C6=CCC(COc7cnsn7)(C(=O)O)CC6)C(C)(C)[C@@H]5CC[C@]43C)[C@@H]12` (stereo partly drawn) [Example 6, 1-(((1,2,5-thiadiazol-3-yl)oxy)methyl)-4-((1R,3aS,5aR,5bR,7aR,11aS,11bR,13aR,13bR)-3a-((2-(1,1-dioxidothiomorpholino)ethyl)amino)-5a,5b,8,8,11a-pentamethyl-1-(prop-1-en-2-yl)-2,3,3a,4,5,5a,5b,6,7,7a,8,11,11a,11b,12,13,13a,13b-octadecahydro-1H-cyclopenta[a]chrysen-9-yl)cyclohex-3-ene-1-carboxylic acid]: the EC50 in experiment [1] was less than 50 nM; in experiment [2] it was greater than 50 nM; in the experiment on gag V370A/ΔT371 virus it was less than 50 nM; in experiment [3], less than 50 nM.
Turning to `C=C(C)[C@@H]1CC[C@]2(NCCN3CCS(=O)(=O)CC3)CC[C@]3(C)[C@H](CC[C@@H]4[C@@]5(C)CC=C(C6=CCC(CCOc7ncccn7)(C(=O)O)CC6)C(C)(C)[C@@H]5CC[C@]43C)[C@@H]12` (stereo partly drawn) [Example A25, 4-((1R,3aS,5aR,5bR,7aR,11aS,11bR,13aR,13bR)-3a-((2-(1,1-dioxidothiomorpholino)ethyl)amino)-5a,5b,8,8,11a-pentamethyl-1-(prop-1-en-2-yl)-2,3,3a,4,5,5a,5b,6,7,7a,8,11,11a,11b,12,13,13a,13b-octadecahydro-1H-cyclopenta[a]chrysen-9-yl)-1-(2-(pyrimidin-2-yloxy)ethyl)cyclohex-3-ene-1-carboxylic acid], the EC50 (in experiment [1]; in experiment [2]; with gag V370A/ΔT371 virus; in experiment [3]) was less than 50 nM each time.
`C=C(C)[C@@H]1CC[C@]2(NC[C@@H](O)C(=O)O)CC[C@]3(C)[C@H](CC[C@@H]4[C@@]5(C)CC=C(C6=CC[C@](COc7ncccc7C#N)(C(=O)O)CC6)C(C)(C)[C@@H]5CC[C@]43C)[C@@H]12` [Example A15, (R)-4-((1R,3aS,5aR,5bR,7aR,11aS,11bR,13aR,13bR)-3a-(((R)-2-carboxy-2-hydroxyethyl)amino)-5a,5b,8,8,11a-pentamethyl-1-(prop-1-en-2-yl)-2,3,3a,4,5,5a,5b,6,7,7a,8,11,11a,11b,12,13,13a,13b-octadecahydro-1H-cyclopenta[a]chrysen-9-yl)-1-(((3-cyanopyridin-2-yl)oxy)methyl)cyclohex-3-enecarboxylic acid]: the EC50 in experiment [1] came to 3 nM; in experiment [2] it was 794 nM; in the experiment with gag V370A/ΔT371 virus it was 10 nM; in experiment [3], 10 nM.
Regarding `C=C(C)[C@@H]1CC[C@]2(NCCN3CCS(=O)(=O)CC3)CC[C@]3(C)[C@H](CC[C@@H]4[C@@]5(C)CC=C(C6=CC[C@@](COc7ncccc7C(N)=O)(C(=O)O)CC6)C(C)(C)[C@@H]5CC[C@]43C)[C@@H]12` [Example 26, (S)-1-(((3-carbamoylpyridin-2-yl)oxy)methyl)-4-((1R,3aS,5aR,5bR,7aR,11aS,11bR,13aR,13bR)-3a-((2-(1,1-dioxidothiomorpholino)ethyl)amino)-5a,5b,8,8,11a-pentamethyl-1-(prop-1-en-2-yl)-2,3,3a,4,5,5a,5b,6,7,7a,8,11,11a,11b,12,13,13a,13b-octadecahydro-1H-cyclopenta[a]chrysen-9-yl)cyclohex-3-ene-1-carboxylic acid], the EC50 in experiment [1] came out at 5 nM; in experiment [2], 28 nM; in the experiment with gag V370A/ΔT371 virus, 41 nM; in experiment [3], 41 nM.
